Data from PMC9841525, “Chemical Blockage of the Mitochondrial Rhomboid Protease PARL by Novel Ketoamide Inhibitors Reveals Its Role in PINK1/Parkin-Dependent Mitophagy” (Journal of Medicinal Chemistry, 2022).
*1 amine or outer side, *2 acyl side, *3 side chain or, on linkers, in order; H or OH if unused. Where a SMILES comes first, the peptide text is derived from it. [ ]: non-standard residue; d: D form. The star is where a group is joined. NH(4-phenylbutyl) = c1ccc(CCCCN*)cc1; X1 = C[C@H](N[*:1])C(=O)C(=O)[*:2]

Tested on: Parkin
Assay: Parkin recruitment to mitochondria, subcellular fractionation and immunoblot
Type: cell-based, human
Conditions: HEK293 T-REx PINK1 cells, HA-Parkin-IRES-GFP; 5 μM compound 5, CCCP 10 μM or Antimycin A 30 μM
Experimental: Inducible stable Flp-In HEK293 T-REx cells expressing PINK1 were described previously.[33] HEK293 T-REx PINK1 and HEK293T cells were grown in DMEM (Gibco) supplemented with 10% (v/v) fetal bovine serum (ThermoFisher), 1% (v/v) GlutaMAX (Gibco), 1% (v/v) sodium pyruvate (Gibco), 125 μg/mL hygromycin (Invitrogen), and 10 μg/mL blasticidin (Gibco) or DMEM supplemented with 10% (v/v) fetal bovine serum, respectively, at 37 °C in 5% (v/v) CO2. For microscopy, cells were seeded on poly-L-lysine (Sigma)-coated slides. Transient plasmid transfections were performed using 25 kDa linear polyethylenimine (Polysciences). Plasmid (100 ng) encoding HA-Parkin-IRES-GFP, mito-mCherry or Parkin-mEGFP, or 500 ng plasmid encoding PGAM5-FLAG were used per 6-well. Total transfected DNA was 2 μg/well. For siRNA transfection, 2 × 10^5 cells were seeded per 6-well and on the next day transfected with 20 nM siRNA-oligonucleotide using lipofectamine RNAiMAX (ThermoFisher). Cells were analyzed 27 h post-transfection or five days post-siRNA-transfection. HEK293 T-REx PINK1 cells were induced with 0.3 μg/mL doxycycline for 24 h before further processing. Hoechst staining (1 μg/mL) was done immediately before adding treatment to the cells. Treatments were administered for the indicated times before processing; CCCP (Sigma) was always used as 10 μM for 3 h and Antimycin A (Sigma) as 30 μM for 3 h.
Unless mentioned otherwise, all steps were performed at 4 °C. For subcellular fractionation to separate cellular content into cytosolic and mitochondrial fractions, cells were washed with PBS, harvested in PBS-EDTA (1 mM EDTA, 0.2 g/L D-glucose), and centrifuged at 500 × g for 5 min. […]
For immunoblot analysis in other cases, cells were either processed as described above or washed with PBS and directly lysed with Tris-glycine SDS-PAGE sample buffer and heated for 15 min at 65 °C. […] For quantification, ImageJ was used (http://rsb.info.nih.gov/ij/). […]

Structure (SMILES): CC(=O)N[C@@H](C)C(=O)N[C@H](C(=O)N[C@@H](Cc1ccccc1)C(=O)N[C@@H](CC(C)C)C(=O)N[C@@H](C)C(=O)C(=O)NCCCCc1ccccc1)C(C)C [compound 5] (Ac-AVFL[X1]-{NH(4-phenylbutyl)})
- Parkin recruitment to the mitochondrial fraction: Parkin recruitment to the mitochondrial fraction, albeit in a lower quantity than in the two chemically induced stress conditions
